Reference: paper PMC10914731, “Homo-BacPROTAC-induced degradation of ClpC1 as a strategy against drug-resistant mycobacteria” (Nature Communications, 2024)
“And” between values parts separate entries of the source, which are not always exact repeats. Equal entries are not always repeated. Where two headings read alike, the source gives them in different places. *1 amine or outer side, *2 acyl side, *3 side chain or, on linkers, in order; H or OH if unused. Where a SMILES comes first, the peptide text is derived from it. [ ]: non-standard residue; d: D form. ξ: configuration not given here. X3 = C#CCOc1ccc([C@@H](OC)[C@H](N[*:1])C(=O)[*:2])cc1; ξNMeTrp(1-Me) = CNC(Cc1cn(C)c2ccccc12)C(=O)O; X8 = CC(CO)C[C@@H](C(=O)[*:2])N(C)[*:1]; NMeL = CN[C@@H](CC(C)C)C(=O)O; ξV = CC(C)C(N)C(=O)O

Assays:
[1] = biological target: ClpC1 NTD protein (M. tuberculosis) (Mycobacterium tuberculosis, UniProt P9WPC9); assay: biochemical; type: binding
[2] = Hepatocyte stability, mice; type: in vitro ADME; conditions: for Hepatocyte Mice: clearance in hepatocytes
Method: (§1) Cryopreserved hepatocytes are incubated in an appropriate buffer system containing 50% species serum. Following an acclimation period (15–30 min) in an incubator (37 °C, 5−10% CO2, 85–95% humidity) the test compound is added to the hepatocyte suspension (pH 7.4, typical cell density of about 1 million cells/mL; final concentration of test compound is 1 µM, final DMSO concentration <0.05% v/v). The cells are incubated for up to 6 h and samples are taken at 6 different time points. Samples are then quenched with acetonitrile and pelleted by centrifugation. The remaining amount of parent compound in the supernatants is then analysed by HPLC-MS/MS. Clearance is calculated from compound half-lives using the well-stirred liver model and is converted to clearance stated as % of the liver blood flow (% Qh).

[3] = type: in vitro ADME, Rat
Method: as §1

[4] = test system: Caco-2 monolayers; assay: in vitro
From the text: (§2) Supplementary Table 1. Structure-Activity Relationships part 1 (SPR, Caco-2) […]
(§3) SPR. Mean values ± standard deviation. Footnotes indicate the number of measurements performed for the respective compound: a) n = […]
(§4) [5] Permeability across Caco-2 monolayers in P(A−B): apical to basolateral and P(B−A): basolateral to apical direction (values reported in 10-
(§5) 6 cm s-1); efflux ratio = P(B−A)/P(A−B); Int. perm: mean value of P(A−B) and P(B−A). […] Influence of Trp-Nα methylation on P(A-B) and efflux
(§6) ratio. Bold: positive influence.

[5] = in vitro; conditions: human; for Papp A→B: apical to basolateral; for Papp B→A: basolateral to apical
From the text: as §2, §3, §4, §5, §6

[6] = type: in vitro ADME, Human; conditions: for Hepatocyte Human: clearance in hepatocytes
Method: as §1

[7] = biological target: ClpC1-NTD substrate, M. tuberculosis ClpC1P1P2 (Mycobacterium tuberculosis, UniProt P9WPC9); assay: biochemical; type: biochemical
[8] = biological target: His6-tagged ClpC1-NTD substrate, M. smegmatis ClpC1P1P2 (UniProt A0R574+P9WPC9); assay: biochemical; type: biochemical
[9] = SPR (Supplementary Table 1), read-out: KD ClpC1-NTD Mean ± SD
[10] = SPR, single independent measurements, read-out: KD ClpC1-NTD
[11] = mean value of P(A−B) and P(B−A)
[12] = Caco-2, Caco-2 permeability P (A-B)
[13] = Caco-2, Caco-2 permeability P (B-A)
[14] = read-out: KD ClpC1-NTD Mean ± SD
[15] = read-out: DC50, single measurements

Sequence of His6-tagged ClpC1-NTD substrate, M. smegmatis ClpC1P1P2 (P9WPC9 1-156, looked up, natural form): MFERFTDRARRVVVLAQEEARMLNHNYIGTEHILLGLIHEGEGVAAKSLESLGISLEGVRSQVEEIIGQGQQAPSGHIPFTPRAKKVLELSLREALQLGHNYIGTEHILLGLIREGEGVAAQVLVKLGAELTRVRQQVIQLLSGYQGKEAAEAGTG
Sequence of His6-tagged ClpC1-NTD substrate, M. smegmatis ClpC1P1P2 (A0R574 whole entry): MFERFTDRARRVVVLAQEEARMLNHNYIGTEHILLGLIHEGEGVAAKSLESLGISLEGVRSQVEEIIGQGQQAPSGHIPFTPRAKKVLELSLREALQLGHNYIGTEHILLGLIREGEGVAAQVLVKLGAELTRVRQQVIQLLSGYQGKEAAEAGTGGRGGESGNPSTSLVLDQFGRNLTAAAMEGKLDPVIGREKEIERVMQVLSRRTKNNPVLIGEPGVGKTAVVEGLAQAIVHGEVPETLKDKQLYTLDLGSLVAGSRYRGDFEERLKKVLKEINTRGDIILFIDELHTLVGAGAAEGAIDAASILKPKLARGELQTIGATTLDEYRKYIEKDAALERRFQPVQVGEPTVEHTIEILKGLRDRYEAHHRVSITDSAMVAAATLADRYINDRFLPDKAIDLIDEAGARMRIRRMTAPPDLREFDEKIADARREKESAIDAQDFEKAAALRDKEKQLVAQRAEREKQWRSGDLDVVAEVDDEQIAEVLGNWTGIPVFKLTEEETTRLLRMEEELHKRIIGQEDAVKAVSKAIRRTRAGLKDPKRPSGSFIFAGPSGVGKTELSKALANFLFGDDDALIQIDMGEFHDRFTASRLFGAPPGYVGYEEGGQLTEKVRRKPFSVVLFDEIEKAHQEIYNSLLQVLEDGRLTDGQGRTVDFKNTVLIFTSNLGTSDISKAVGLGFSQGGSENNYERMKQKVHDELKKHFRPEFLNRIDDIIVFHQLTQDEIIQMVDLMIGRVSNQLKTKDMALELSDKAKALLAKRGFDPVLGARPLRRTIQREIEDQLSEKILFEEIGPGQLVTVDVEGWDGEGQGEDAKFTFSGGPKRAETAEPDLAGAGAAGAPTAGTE
Sequence of ClpC1 NTD protein (M. tuberculosis) (P9WPC9 1-156, looked up, natural form): as the sequence (P9WPC9 1-156, looked up, natural form) above
Sequence of ClpC1-NTD substrate, M. tuberculosis ClpC1P1P2 (P9WPC5 whole entry): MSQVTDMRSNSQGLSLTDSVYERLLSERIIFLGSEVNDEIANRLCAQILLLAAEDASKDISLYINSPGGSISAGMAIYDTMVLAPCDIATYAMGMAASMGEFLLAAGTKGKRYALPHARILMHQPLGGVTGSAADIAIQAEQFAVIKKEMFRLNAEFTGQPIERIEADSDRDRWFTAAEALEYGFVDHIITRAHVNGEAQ
Sequence of ClpC1-NTD substrate, M. tuberculosis ClpC1P1P2 (P9WPC9 whole entry): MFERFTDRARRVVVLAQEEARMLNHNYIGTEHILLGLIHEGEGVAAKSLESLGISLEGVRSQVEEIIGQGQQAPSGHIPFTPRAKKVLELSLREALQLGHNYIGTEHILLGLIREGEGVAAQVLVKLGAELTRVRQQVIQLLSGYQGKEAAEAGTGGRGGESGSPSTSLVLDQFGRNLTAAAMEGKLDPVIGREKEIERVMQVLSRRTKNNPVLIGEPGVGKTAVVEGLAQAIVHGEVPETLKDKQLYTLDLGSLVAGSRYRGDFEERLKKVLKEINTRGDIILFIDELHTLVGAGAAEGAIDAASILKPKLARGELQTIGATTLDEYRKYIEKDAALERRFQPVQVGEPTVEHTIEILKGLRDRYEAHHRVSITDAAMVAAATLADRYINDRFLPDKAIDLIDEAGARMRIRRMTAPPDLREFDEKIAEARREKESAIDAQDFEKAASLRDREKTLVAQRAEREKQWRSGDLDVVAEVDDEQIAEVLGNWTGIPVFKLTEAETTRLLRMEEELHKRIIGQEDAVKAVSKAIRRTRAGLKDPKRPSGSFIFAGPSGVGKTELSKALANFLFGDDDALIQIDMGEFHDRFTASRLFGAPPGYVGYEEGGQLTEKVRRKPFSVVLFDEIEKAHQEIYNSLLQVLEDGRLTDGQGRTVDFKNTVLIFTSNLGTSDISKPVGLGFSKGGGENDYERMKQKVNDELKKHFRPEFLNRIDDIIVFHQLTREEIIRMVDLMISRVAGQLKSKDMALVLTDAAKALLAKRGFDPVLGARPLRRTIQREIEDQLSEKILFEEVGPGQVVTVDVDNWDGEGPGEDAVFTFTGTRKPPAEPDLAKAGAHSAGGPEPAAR
Sequence of ClpC1-NTD substrate, M. tuberculosis ClpC1P1P2 (P9WPC3 whole entry, further chain): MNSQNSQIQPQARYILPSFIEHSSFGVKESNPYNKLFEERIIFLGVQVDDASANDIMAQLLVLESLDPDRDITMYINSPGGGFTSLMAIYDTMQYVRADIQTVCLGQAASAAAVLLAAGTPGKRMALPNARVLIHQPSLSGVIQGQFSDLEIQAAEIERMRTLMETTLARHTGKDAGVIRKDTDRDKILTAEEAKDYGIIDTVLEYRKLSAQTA

Row | SMILES | Kd [1, 9] | Kd [1, 10] | Hepatocyte Mice [2] | Hepatocyte Stability Rat QH ([3]; Rat) | Hepatocyte Rat ([3]; clearance in hepatocytes) | Caco-2 Int. Perm [4, 11] | Papp A→B [5, 12] | Papp B→A [5, 13] | Hepatocyte Human [6] | koff ClpC1-NTD [1] | Kd ([1]; read-out: KD ClpC1-NTD) | Kd [1, 14] | Hepatocyte Stability Mouse QH [2] | 1-Dmax, Mean [7] | 1-Dmax, single measurements [7] | DC50 ([7]; read-out: DC50, Mean) | DC50 [7, 15] | Hepatocyte Stability Rat QH [3] | CACO permeability PEAB ([4]; Caco-2) | CACO permeability PEBA ([4]; Caco-2) | other results
1 | CO[C@H](c1ccc(OCc2cn(CCCCCn3cc(COc4ccc([C@@H](OC)[C@@H]5NC(=O)[C@H](C)NC(=O)[C@H](C[C@@H](C)CO)N(C)C(=O)[C@H](Cc6cn(C)c7ccccc67)N(C)C(=O)[C@H](C(C)C)NC(=O)[C@H](CC(C)C)N(C)C(=O)[C@H](C(C)C)NC5=O)cc4)nn3)nn2)cc1)[C@@H]1NC(=O)[C@H](C)NC(=O)[C@H](C[C@@H](C)CO)N(C)C(=O)[C@H](Cc2cn(C)c3ccccc23)N(C)C(=O)[C@H](C(C)C)NC(=O)[C@H](CC(C)C)N(C)C(=O)[C@H](C(C)C)NC1=O [SI-66] | 7 ± 2 nM | 8.57 nM and 6.41 nM | 15 %Qh | 9.964% | 10 %Qh | 3.7 10-6 cm s-1 | < 4.8 ×10⁻⁶ cm/s | < 2.5 ×10⁻⁶ cm/s | 12 %Qh |  |  |  |  |  |  |  |  |  |  |  | koff ([1]; SPR dissociation rate constant, read-out: koff ClpC1-NTD Mean ± SD): 0.01 s⁻¹
2 | CO[C@H](c1ccccc1)[C@@H]1NC(=O)[C@H](C)NC(=O)[C@H](C[C@@H](C)CO)N(C)C(=O)[C@H](Cc2cn(CCCCn3cc(C[C@H]4C(=O)N(C)[C@@H](C[C@@H](C)CO)C(=O)N[C@@H](C)C(=O)N[C@@H]([C@H](OC)c5ccccc5)C(=O)N[C@@H](C(C)C)C(=O)N(C)[C@@H](CC(C)C)C(=O)N[C@@H](C(C)C)C(=O)N4C)c4ccccc43)c3ccccc23)N(C)C(=O)[C@H](C(C)C)NC(=O)[C@H](CC(C)C)N(C)C(=O)[C@H](C(C)C)NC1=O [SI-61] |  |  | 15 %Qh |  |  |  |  |  |  | 8E-4 5E-4 1/s | 0.581 nM and 0.49 nM | 0.54 ± 0.06 nM | 15.001% | 42% | 36.8% and 46.3% | 7.2 µM | 7.3 µM and 7 µM | 6.192% | <0.000 cm/sec | <0.000 cm/sec | Hepatocyte Rat [3]: 6 %Qh; Caco-2 Int. Perm ([4]; Caco-2): 2.75 10-6 cm s-1; Caco-2 permeability P (A-B) ([4]; Caco-2): < 4.2 10-6 cm s-1; Caco-2 permeability P (B-A) ([4]; Caco-2): < 1.3 10-6 cm s-1; Hepatocyte Stability Human QH [6]: 12.386%; 1-Dmax, Mean [8]: 42%; 1-Dmax, single measurements [8]: 37.4% and 43.6% and 42.4% and 44.3%; DC50 ([8]; read-out: DC50, Mean): 5.3 µM; DC50 [8, 15]: 5.3 µM (2×) and 4.6 µM and 5.8 µM
3 | CO[C@H](c1ccccc1)[C@@H]1NC(=O)[C@H](C)NC(=O)[C@H](C[C@@H](C)CO)N(C)C(=O)[C@H](Cc2cn(Cc3cn(CCCCCn4cc(Cn5cc(C[C@H]6C(=O)N(C)[C@@H](C[C@@H](C)CO)C(=O)N[C@@H](C)C(=O)N[C@@H]([C@H](OC)c7ccccc7)C(=O)N[C@@H](C(C)C)C(=O)N(C)[C@@H](CC(C)C)C(=O)N[C@@H](C(C)C)C(=O)N6C)c6ccccc65)nn4)nn3)c3ccccc23)N(C)C(=O)[C@H](C(C)C)NC(=O)[C@H](CC(C)C)N(C)C(=O)[C@H](C(C)C)NC1=O [SI-57] | 1.6 ± 0.8 nM | 2.13 nM and 1 nM | 15 %Qh | 8.056% | 8 %Qh | 1.5 10-6 cm s-1 | < 2.2 ×10⁻⁶ cm/s | < 0.7 ×10⁻⁶ cm/s | 12 %Qh |  |  |  |  |  |  |  |  |  |  |  | koff ClpC1-NTD ([1]; SPR, single independent measurements): 0.001 s⁻¹; koff ([1]; SPR, single independent measurements, read-out: koff ClpC1-NTD): 0.002 s⁻¹; 1-Dmax, single measurements ([7]; Mtb, Measurement 1-4): 68.4% and 44.2% and 52.6%; DC50 ([7]; Mtb, Measurement 1-4, read-out: DC50, single measurements): 20.9 µM and 18.7 µM and 31.5 µM; 1-Dmax (percent substrate remaining at maximal degradation) ([7]; Mtb, mean of the measurements, read-out: 1-Dmax, Mean): 55%; DC50 ([7]; Mtb, mean of the measurements, read-out: DC50, Mean): 23.7 µM; 1-Dmax, single measurements ([8]; Msm, Measurement 1-6): 73.5% and 61.5% and 74.0%; 1-Dmax (percent substrate remaining at maximal degradation) ([8]; Msm, Measurement 1-6, read-out: 1-Dmax, single measurements): 60.5%; 1-Dmax (percent substrate remaining at maximal degradation) ([8]; Msm, mean of the measurements, read-out: 1-Dmax, Mean): 67%; DC50 ([8]; Msm, mean of the measurements, read-out: DC50, Mean): 23 µM
4 | CCCCCn1cc(C[C@@H]2NC(=O)[C@H](CC(C)C)N(C)C(=O)[C@H](C(C)C)NC(=O)[C@H]([C@H](OC)c3ccccc3)NC(=O)[C@H](C)NC(=O)[C@H](C[C@@H](C)CO)N(C)C(=O)[C@H](Cc3cn(C)c4ccccc34)NC2=O)nn1 [Compound 24] |  |  | 35 %Qh | 33.303% | 33 %Qh | 5.6 10-6 cm s-1 | < 0.3 ×10⁻⁶ cm/s |  |  |  |  |  |  |  |  |  |  |  |  |  | Kd ([1]; SPR, individual measurements (source data), read-out: KD ClpC1-NTD): 4.68 nM and 4.44 nM; Kd ([1]; SPR, read-out: ClpC1-NTD KD Mean ± SD): 4.6 ± 0.2 nM; Hepatocyte Stability Mouse QH ([2]; Mouse): 35.166%; CACO permeability PEBA ([4]; basolateral to apical): 0.000011 cm/s; Papp A→B ([5]; Caco-2, CACO permeability PEAB): < 0.27 ×10⁻⁶ cm/s; Papp B→A ([5]; Caco-2, CACO permeability PEBA): 13 ×10⁻⁶ cm/s; Hepatocyte Stability Human QH ([6]; Human): 17.172%
5 | COC(c1ccc(OCc2cn(CCOCCOCCOCCOCCn3cc(COc4ccc(C(OC)C5NC(=O)C(C)NC(=O)C(CC(C)CO)N(C)C(=O)C(Cc6cn(C)c7ccccc67)N(C)C(=O)C(C(C)C)NC(=O)C(CC(C)C)N(C)C(=O)C(C(C)C)NC5=O)cc4)nn3)nn2)cc1)C1NC(=O)C(C)NC(=O)C(CC(C)CO)N(C)C(=O)C(Cc2cn(C)c3ccccc23)N(C)C(=O)C(C(C)C)NC(=O)C(CC(C)C)N(C)C(=O)C(C(C)C)NC1=O (centres unmarked) [SI-65] |  |  |  |  |  |  |  |  |  | 5E-3 1E-2 1/s | 2.29 nM and 1.35 nM | 1.8 ± 0.7 nM | 15.001% | 84% | 84.7% and 83.2% | 8 µM | 7 µM and 9 µM | 16.284% | <0.0000086 cm/sec | <0.0000051 cm/sec | Caco-2 Int. Perm ([4]; Caco-2): 6.9 10-6 cm s-1; Hepatocyte Stability Human QH [6]: 12.386%; 1-Dmax, Mean [8]: 92%; 1-Dmax, single measurements [8]: 86.9% and 92.9% and 97.0%; DC50 ([8]; read-out: DC50, Mean): 5.2 µM; DC50 [8, 15]: 6.1 µM and 5 µM and 4.5 µM
6 | C#CCOc1ccc([C@@H](OC)[C@@H]2NC(=O)[C@@H](C)NC(=O)[C@H](CC(C)CO)N(C)C(=O)C(Cc3cn(C)c4ccccc34)N(C)C(=O)C(C(C)C)NC(=O)[C@H](CC(C)C)N(C)C(=O)[C@@H](C(C)C)NC2=O)cc1 (some centres unmarked) [SI-64] (cyclo([NMeL][ξV][ξNMeTrp(1-Me)][X8][dA][X3][dV])) | 11 ± 1 nM | 12.1 nM and 10.5 nM | 34 %Qh | 49.748% | 50 %Qh | 29.0 10-6 cm s-1 |  |  | 22 %Qh |  |  |  |  |  |  |  |  |  |  |  | Hepatocyte Stability Mouse QH ([2]; Mouse): 34.335%; CACO permeability PEAB ([4]; apical to basolateral): 0.000014999999999999999 cm/s; CACO permeability PEBA ([4]; basolateral to apical): 0.000042999999999999995 cm/s; Permeability Correlation P (A-B) ([4]; influence of Trp-Nα methylation on P(A-B), matched pair, listed under the methylated partner): > 75; Permeability Correlation Ratio ([4]; influence of Trp-Nα methylation on efflux ratio, matched pair, listed under the methylated partner): > 31; efflux ratio ([5]; Caco-2): 2.9; Papp A→B ([5]; Caco-2, CACO permeability PEAB): 17 ×10⁻⁶ cm/s; Papp B→A ([5]; Caco-2, CACO permeability PEBA): 44 ×10⁻⁶ cm/s; Hepatocyte Stability Human QH ([6]; Human): 21.688%
